Structures are written as SMILES. ≈ marks a conversion by molar mass, not a printed value. Bounds are passed on as bounds.

The source of these data is ChEMBL document CHEMBL4229511, “Synthesis and biological activity investigation of azole and quinone hybridized phosphonates” (Bioorg Med Chem Lett, 2018).

Data set [1] relates to Candida albicans. The data set is described as follows: Antifungal activity against Candida albicans MYA2876 by CLSI […] protocol based method. It is filed as functional.
The test system of a further data set is Fusarium graminearum. The data set is described as follows: Antifungal activity against Fusarium graminearum by CLSI […] protocol based method. It is filed as functional.
The next data set relates to Aspergillus flavus. The data set is described as follows: Antifungal activity against Aspergillus flavus by CLSI […] protocol based method. Format: functional.
The subject of data set [2] is Candida albicans. Nature of the data set: Antifungal activity against Candida albicans ATCC 64124 by CLSI […] protocol based method. Format: functional.
A further data set relates to Rhodotorula mucilaginosa. The data set is described as follows: Antifungal activity against Rhodotorula pilimanae by CLSI […] protocol based method. Format: functional.
The next data set relates to Cryptococcus neoformans. Nature of the data set: Antifungal activity against Cryptococcus neoformans H99 by CLSI […] protocol based method. Format: functional. The conditions noted are these: var grubii H99.
For data set [3], the system named is HeLa. The data set is described as follows: Cytotoxicity against human HeLa cells up to 10 ug/ml after 24 hrs by MTT assay. Format: cell-based. A general note: Tetrazolium dyes change colour on reduction, which living cells bring about.
In data set [4] the test system is HeLa. The data set is described as follows: Cytotoxicity against human HeLa cells after 24 hrs by MTT assay. Format: cell-based.
The subject of a further data set is Escherichia coli. The data set is described as follows: Antibacterial activity against Escherichia coli ATCC 25922 after 18 hrs. The conditions noted are these: ATCC 25922, 18 h. It is filed as functional.
The subject of data set [5] is Staphylococcus aureus. The data set is described as follows: Antibacterial activity against Staphylococcus aureus ATCC 25923 after 18 hrs. The conditions noted are these: ATCC 25923, 18 h. It is filed as functional.
Data set [6] concerns Staphylococcus aureus. Nature of the data set: Antibacterial activity against Staphylococcus aureus ATCC 43300 after 18 hrs. It is filed as functional. Conditions: ATCC 43300, 18 h.
Data set [7] concerns Staphylococcus aureus. The data set is described as follows: Antibacterial activity against Staphylococcus aureus ATCC 33591 after 18 hrs. It is filed as functional. The conditions noted are these: ATCC 33591, 18 h.

Usually MIC stands for the least concentration at which growth counts as inhibited. Regarding `CCCCCCCCS(=O)(=O)OC[C@H]1O[C@H](O[C@@H]2[C@@H](O)[C@H](O[C@H]3O[C@H](CN)[C@@H](O)[C@H](O)[C@H]3O)[C@@H](N)C[C@H]2N)[C@H](O)[C@@H](N)[C@@H]1O`, the MIC against Candida albicans [1] was 64 µg/mL (≈ 96.9 µM); with Fusarium graminearum it was 32 µg/mL (≈ 48.4 µM); with Aspergillus flavus, above 256 µg/mL; with Candida albicans [2], 256 µg/mL (≈ 387 µM); against Rhodotorula mucilaginosa it was 4 µg/mL (≈ 6.05 µM); in the data set on Cryptococcus neoformans, 4 µg/mL (≈ 6.05 µM).
The term IC50 denotes the concentration that inhibits the measured activity by half. The low end stands for greater potency, the high end for weaker potency. Consider `CCOP(=O)(CCCCCCCCCCn1nnc2c1C(=O)c1ccccc1C2=O)OCC`, for which the MIC was above 128 µg/mL in the data set with Candida albicans [1]; 0.5 µg/mL (≈ 1.05 µM) in the data set with Fusarium graminearum; above 128 µg/mL against Escherichia coli; above 128 µg/mL against Staphylococcus aureus [5]; above 128 µg/mL against Candida albicans [2]; above 128 µg/mL in the data set on Rhodotorula mucilaginosa. Also, the MIC with Staphylococcus aureus [6] was 16 to 64 µg/mL (≈ 33.6 to 135 µM); with Staphylococcus aureus [7], 64 µg/mL (≈ 135 µM); in the data set with Cryptococcus neoformans, above 128 µg/mL. For the same molecule, the Activity result in the data set on HeLa [3] was “Non-Toxic”. In the data set with HeLa [4], this molecule came in with an IC50 of 65.7 µg/mL (≈ 138 µM).
Turning to `O=C1c2ccccc2C(=O)c2c1nnn2CCCP(=O)([O-])[O-].[K+].[K+]`, the MIC against Candida albicans [1] was 32 µg/mL; against Fusarium graminearum, 32 µg/mL; with Escherichia coli, above 256 µg/mL; in the data set with Staphylococcus aureus [5] it was 32 µg/mL; with Aspergillus flavus, 16 to 32 µg/mL; in the data set with Candida albicans [2] it was 32 µg/mL. Also, the MIC is 32 µg/mL in the data set on Rhodotorula mucilaginosa, 64 to 128 µg/mL in the data set on Staphylococcus aureus [6], 128 µg/mL in the data set with Staphylococcus aureus [7] and 32 µg/mL against Cryptococcus neoformans. In addition, the Activity entry with HeLa [3] was “Non-Toxic”. Also, the IC50 in the data set with HeLa [4] was 88 µg/mL.
With `CCOP(=O)(CCCCn1nnc2c1C(=O)c1ccccc1C2=O)OCC`, the MIC in the data set with Candida albicans [1] is above 128 µg/mL; in the data set on Fusarium graminearum, 8 µg/mL (≈ 20.4 µM); against Escherichia coli, above 128 µg/mL; against Staphylococcus aureus [5], 128 µg/mL (≈ 327 µM); in the data set with Aspergillus flavus, above 128 µg/mL; against Candida albicans [2], above 128 µg/mL. Further, the MIC with Rhodotorula mucilaginosa is 128 µg/mL (≈ 327 µM); with Staphylococcus aureus [6], 64 to 128 µg/mL (≈ 164 to 327 µM); with Staphylococcus aureus [7], 128 µg/mL (≈ 327 µM); against Cryptococcus neoformans, 32 µg/mL (≈ 81.8 µM). Moreover, the IC50 in the data set with HeLa [4] worked out at 9.11 µg/mL (≈ 23.3 µM).
With `CCOP(=O)(CCCCCCn1nnc2c1C(=O)c1ccccc1C2=O)OCC`, the MIC in the data set on Candida albicans [1] was above 128 µg/mL; against Fusarium graminearum it was 4 µg/mL (≈ 9.54 µM); with Escherichia coli, above 128 µg/mL; with Staphylococcus aureus [5], 32 to 64 µg/mL (≈ 76.3 to 153 µM); against Aspergillus flavus, above 128 µg/mL; in the data set with Candida albicans [2] it was above 128 µg/mL. Besides, the MIC with Rhodotorula mucilaginosa was 64 to 128 µg/mL (≈ 153 to 305 µM); against Staphylococcus aureus [6], 32 to 64 µg/mL (≈ 76.3 to 153 µM); against Staphylococcus aureus [7], 64 µg/mL (≈ 153 µM); against Cryptococcus neoformans it was 32 µg/mL (≈ 76.3 µM). Besides, 47 µg/mL (≈ 112 µM) corresponded to half-maximal inhibition with HeLa [4] (IC50).
`O=C1c2ccccc2C(=O)c2c1nnn2CCCCCCCCP(=O)([O-])[O-].[K+].[K+]`: the MIC was 8 to 16 µg/mL against Candida albicans [1]; 32 µg/mL against Fusarium graminearum; above 256 µg/mL against Escherichia coli; 64 µg/mL in the data set with Staphylococcus aureus [5]; 8 to 16 µg/mL against Aspergillus flavus; 16 to 32 µg/mL against Candida albicans [2]. The MIC against Rhodotorula mucilaginosa was above 128 µg/mL; in the data set on Staphylococcus aureus [6], above 256 µg/mL; in the data set on Staphylococcus aureus [7], 256 µg/mL; in the data set with Cryptococcus neoformans it was 32 µg/mL. Besides, in the data set on HeLa [3], the Activity entry is given as “Non-Toxic”. In the data set with HeLa [4], this molecule yielded an IC50 of 95.3 µg/mL.
With `CCOP(=O)(CCn1nnc2c1C(=O)c1ccccc1C2=O)OCC`, the MIC was above 128 µg/mL in the data set with Candida albicans [1]; 16 µg/mL (≈ 44 µM) against Fusarium graminearum; above 128 µg/mL with Escherichia coli; 64 µg/mL (≈ 176 µM) against Staphylococcus aureus [5]; 64 to 128 µg/mL (≈ 176 to 352 µM) against Aspergillus flavus; above 128 µg/mL against Candida albicans [2]. In addition, the MIC is 64 to 128 µg/mL (≈ 176 to 352 µM) against Rhodotorula mucilaginosa, 64 µg/mL (≈ 176 µM) against Staphylococcus aureus [6], 64 µg/mL (≈ 176 µM) with Staphylococcus aureus [7] and 16 µg/mL (≈ 44 µM) against Cryptococcus neoformans. For the same molecule, the IC50 in the data set with HeLa [4] was found to be 13.8 µg/mL (≈ 38.1 µM).
`CCOP(=O)(CCCn1nnc2c1C(=O)c1ccccc1C2=O)OCC`: the MIC with Candida albicans [1] is above 128 µg/mL; with Fusarium graminearum, 16 µg/mL (≈ 42.4 µM); in the data set with Escherichia coli, above 128 µg/mL; against Staphylococcus aureus [5], 64 µg/mL (≈ 170 µM); against Aspergillus flavus, 64 to 128 µg/mL (≈ 170 to 339 µM); in the data set on Candida albicans [2], above 128 µg/mL. For the same molecule, the MIC was 64 to 128 µg/mL (≈ 170 to 339 µM) against Rhodotorula mucilaginosa, 64 to 128 µg/mL (≈ 170 to 339 µM) in the data set on Staphylococcus aureus [6], 64 µg/mL (≈ 170 µM) with Staphylococcus aureus [7] and 16 µg/mL (≈ 42.4 µM) against Cryptococcus neoformans. The molecule also showed an IC50 with HeLa [4] of 6.97 µg/mL (≈ 18.5 µM).
As to `O=C1c2ccccc2C(=O)c2c1nnn2CCCCCCP(=O)([O-])[O-].[K+].[K+]`, the MIC with Candida albicans [1] is 32 to 64 µg/mL; in the data set with Fusarium graminearum, 64 µg/mL; against Escherichia coli, above 256 µg/mL; in the data set with Staphylococcus aureus [5], 32 to 64 µg/mL; against Aspergillus flavus, 64 µg/mL; with Candida albicans [2], 32 to 64 µg/mL. Further, the MIC in the data set with Rhodotorula mucilaginosa stood at 128 µg/mL; in the data set on Staphylococcus aureus [6] it was 64 µg/mL; against Staphylococcus aureus [7] it was 64 µg/mL; against Cryptococcus neoformans, 64 µg/mL. Besides, the Activity entry in the data set on HeLa [3] is given as “Non-Toxic”. Besides, the IC50 in the data set with HeLa [4] worked out at 73.6 µg/mL.
For `O=C1c2ccccc2C(=O)c2c1nnn2CCCCCCCCCCP(=O)([O-])[O-].[K+].[K+]`, the MIC with Candida albicans [1] was 128 µg/mL; with Fusarium graminearum, 32 µg/mL; in the data set with Escherichia coli it was above 256 µg/mL; with Staphylococcus aureus [5], 32 to 64 µg/mL; against Candida albicans [2] it was 128 µg/mL; in the data set with Rhodotorula mucilaginosa, 64 µg/mL. Besides, the MIC in the data set with Staphylococcus aureus [6] was above 256 µg/mL; in the data set on Staphylococcus aureus [7], above 256 µg/mL; against Cryptococcus neoformans, 32 µg/mL. The Activity result with HeLa [3] is reported as “Non-Toxic”. This molecule also showed an IC50 in the data set on HeLa [4] above 100 µg/mL.
For the molecule `O=C1c2ccccc2C(=O)c2c1nnn2CCP(=O)([O-])[O-].[K+].[K+]`, the MIC against Candida albicans [1] is above 128 µg/mL; against Fusarium graminearum, 32 µg/mL; in the data set with Escherichia coli it was above 256 µg/mL; in the data set with Staphylococcus aureus [5], 32 µg/mL; with Aspergillus flavus, above 128 µg/mL; against Candida albicans [2], above 128 µg/mL. In addition, the MIC came to 128 µg/mL in the data set on Rhodotorula mucilaginosa, 128 µg/mL against Staphylococcus aureus [6], 128 µg/mL in the data set on Staphylococcus aureus [7] and 64 µg/mL against Cryptococcus neoformans. In the data set with HeLa [3], the Activity result was “Non-Toxic”. The same molecule registered an IC50 in the data set with HeLa [4] of 91.8 µg/mL.
Take `CCOP(=O)(CCCCCCCCn1nnc2c1C(=O)c1ccccc1C2=O)OCC`: the MIC in the data set with Candida albicans [1] is above 128 µg/mL; in the data set on Fusarium graminearum it was 1 to 2 µg/mL (≈ 2.23 to 4.47 µM); against Escherichia coli, above 128 µg/mL; with Staphylococcus aureus [5] it was 64 µg/mL (≈ 143 µM); in the data set with Aspergillus flavus it was above 128 µg/mL; with Candida albicans [2], above 128 µg/mL. Also, the MIC in the data set with Rhodotorula mucilaginosa was above 128 µg/mL; in the data set with Staphylococcus aureus [6] it was 16 to 32 µg/mL (≈ 35.8 to 71.5 µM); in the data set on Staphylococcus aureus [7], 32 µg/mL (≈ 71.5 µM); in the data set on Cryptococcus neoformans, above 128 µg/mL. In addition, in the data set on HeLa [3], the Activity entry is on record as “Non-Toxic”. This molecule also yielded an IC50 in the data set with HeLa [4] of 52 µg/mL (≈ 116 µM).
`C[C@@H](c1ncncc1F)[C@](O)(Cn1cncn1)c1ccc(F)cc1F` [VORICONAZOLE]: the MIC against Candida albicans [1] was 0.125 µg/mL (≈ 0.358 µM); with Fusarium graminearum, 32 µg/mL (≈ 91.6 µM); against Aspergillus flavus, 1 µg/mL (≈ 2.86 µM); against Candida albicans [2], above 256 µg/mL; against Rhodotorula mucilaginosa it was 8 µg/mL (≈ 22.9 µM); in the data set with Cryptococcus neoformans it was 0.125 µg/mL (≈ 0.358 µM).
